“And” between values parts separate entries of the source, which are not always exact repeats. Equal entries are not always repeated. Ends that are not written are not given here.
Columns and labels:
[1] = tested on: human pancreatic ductal epithelial cells (HPNE)
[2] = tested on: human bronchial epithelial cells (BEAS-2B)
[3] = tested on: human embryonic kidney cells (HEK293T)
[4] = tested on: human umbilical vein endothelial cells (HUVEC)
[5] = Electronic tongue analysis (Taste-Sensing System SA 402B); design: unit not given here; conditions: reference solution 30 mM KCl + 0.3 mM tartaric acid as baseline, first measurement excluded; for Umami: sensor AAE; for Umami / Bitter / Sweet: detection threshold 0, room temperature; for Umami / Bitter / Sour / Salty: four replicates; for Sour: detection threshold -13, room temperature; for Salty: detection threshold -6, room temperature; for Sweet: measured five times
How it was run: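 Samples were tested at 0.1 and 1.0 mg/mL on an SA 402B e-tongue fitted with sourness, saltiness, bitterness, sweetness and umami sensors, with 30 mM KCl/0.3 mM tartaric acid as reference and baseline. Thresholds were −13 for sour, −6 for salty and 0 for the rest. Runs at room temperature: four replicates, five for sweetness, first reading discarded.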

| Substance | Average cell viability, HPNE [1] | Cell viability, HPNE, Data1 [1] | Cell viability, HPNE, Data2 [1] | Cell viability, HPNE, Data3 [1] | Average cell viability, BEAS-2B [2] | Cell viability, BEAS-2B, Data1 [2] | Cell viability, BEAS-2B, Data2 [2] | Cell viability, BEAS-2B, Data3 [2] | Average cell viability, HEK293T [3] | Cell viability, HEK293T, Data1 [3] | Cell viability, HEK293T, Data2 [3] | Cell viability, HEK293T, Data3 [3] | Average cell viability, HUVEC [4] | Cell viability, HUVEC, Data1 [4] | Cell viability, HUVEC, Data2 [4] | Cell viability, HUVEC, Data3 [4] | Umami ([5]; peptide 0.1 mg/mL) | Umami ([5]; peptide 1 mg/mL) | Bitter ([5]; sensor C00, peptide 0.1 mg/mL) | Bitter ([5]; sensor C00, peptide 1 mg/mL) | also measured |
| --- | --- | --- | --- | --- | --- | --- | --- | --- | --- | --- | --- | --- | --- | --- | --- | --- | --- | --- | --- | --- | --- |
| NGDDEEG [TaPep7] | 99.30 | 92.35 | 93.04 | 112.51 | 102.56 | 94.72 | 111.17 | 101.79 | 95.11 | 96.15 | 94.73 | 94.45 | 105.24 | 113.68 | 110.16 | 91.88 | 1.28 | -5.11 | 7.41 | bitterness suppression and -0.45 | Sour ([5]; sensor CA0, peptide 0.1 mg/mL): -2.86; Sour ([5]; sensor CA0, peptide 1 mg/mL): 11.92; Salty ([5]; sensor CT0, peptide 0.1 mg/mL): -21.22; Salty ([5]; sensor CT0, peptide 1 mg/mL): 9.19; Sweet ([5]; sensor GL1, peptide 0.1 mg/mL): 6.98; Sweet ([5]; sensor GL1, peptide 1 mg/mL): -6.18 |
| NNDDEES [TaPep50] | 98.30 | 106.02 | 107.52 | 81.36 | 104.39 | 104.29 | 103.89 | 104.99 | 101.39 | 105.62 | 98.99 | 99.56 | 105.59 | 101.94 | 108.73 | 106.09 | 2.11 | -3.90 | 7.18 | 4.27 | Sour ([5]; sensor CA0, peptide 0.1 mg/mL): -4.45; Sour ([5]; sensor CA0, peptide 1 mg/mL): 9.63; Salty ([5]; sensor CT0, peptide 0.1 mg/mL): -22.53; Salty ([5]; sensor CT0, peptide 1 mg/mL): 3.54; Sweet ([5]; sensor GL1, peptide 0.1 mg/mL): 7.42; Sweet ([5]; sensor GL1, peptide 1 mg/mL): -3.07 |
| PPLENT [TaPep39] | 99.87 | 95.44 | 90.95 | 113.21 | 115.22 | 118.05 | 113.86 | 113.76 | 100.06 | 96.81 | 97.19 | 106.18 | 107.56 | 101.22 | 113.36 | 108.09 | 0.99 | -5.89 | 7.69 | 2.99 | Sour ([5]; sensor CA0, peptide 0.1 mg/mL): -1.65; Sour ([5]; sensor CA0, peptide 1 mg/mL): 15.66; Salty ([5]; sensor CT0, peptide 0.1 mg/mL): -18.68; Salty ([5]; sensor CT0, peptide 1 mg/mL): 12.96; Sweet ([5]; sensor GL1, peptide 0.1 mg/mL): 6.53; Sweet ([5]; sensor GL1, peptide 1 mg/mL): -7.82 |
| PTELESD [TaPep41] | 95.94 | 86.16 | 113.91 | 87.75 | 110.80 | 117.85 | 114.36 | 100.20 | 106.18 | 94.54 | 110.54 | 113.47 | 103.09 | 108.17 | 102.98 | 98.11 | 1.88 | -3.94 | 7.34 | 3.91 | Sour ([5]; sensor CA0, peptide 0.1 mg/mL): -3.84; Sour ([5]; sensor CA0, peptide 1 mg/mL): 9.16; Salty ([5]; sensor CT0, peptide 0.1 mg/mL): -20.79; Salty ([5]; sensor CT0, peptide 1 mg/mL): 2.54; Sweet ([5]; sensor GL1, peptide 0.1 mg/mL): 8.41; Sweet ([5]; sensor GL1, peptide 1 mg/mL): -8.94 |

From article PMC12543283, “TastepepAI: An artificial intelligence platform for taste peptide de novo design” (PLOS Computational Biology, 2025)
